Reference: ChEMBL document CHEMBL4385643, “Design of a brain-penetrant CDK4/6 inhibitor for glioblastoma” (Bioorg Med Chem Lett, 2019)

What was measured:
[1] = target: Tyrosine-protein kinase Fgr (Homo sapiens) (UniProt P09769); experiment: Inhibition of recombinant full length human His-tagged FGR expressed in baculovirus expression system at 0.1 uM using tyrosine-2 peptide as substrate incubated for 60 mins by Z'-LYTE assay relative to control
[2] = target: Ephrin type-B receptor 1 (Homo sapiens) (UniProt P54762); experiment: Inhibition of recombinant human GST-tagged EPHB1 catalytic domain (613 to 881 residues) expressed in baculovirus expression system at 0.1 uM using tyrosine-2 peptide as substrate incubated for 60 mins by Z'-LYTE assay relative to control
Chain of Ephrin type-B receptor 1 (Homo sapiens) (P54762 whole entry, the tested form may be a part): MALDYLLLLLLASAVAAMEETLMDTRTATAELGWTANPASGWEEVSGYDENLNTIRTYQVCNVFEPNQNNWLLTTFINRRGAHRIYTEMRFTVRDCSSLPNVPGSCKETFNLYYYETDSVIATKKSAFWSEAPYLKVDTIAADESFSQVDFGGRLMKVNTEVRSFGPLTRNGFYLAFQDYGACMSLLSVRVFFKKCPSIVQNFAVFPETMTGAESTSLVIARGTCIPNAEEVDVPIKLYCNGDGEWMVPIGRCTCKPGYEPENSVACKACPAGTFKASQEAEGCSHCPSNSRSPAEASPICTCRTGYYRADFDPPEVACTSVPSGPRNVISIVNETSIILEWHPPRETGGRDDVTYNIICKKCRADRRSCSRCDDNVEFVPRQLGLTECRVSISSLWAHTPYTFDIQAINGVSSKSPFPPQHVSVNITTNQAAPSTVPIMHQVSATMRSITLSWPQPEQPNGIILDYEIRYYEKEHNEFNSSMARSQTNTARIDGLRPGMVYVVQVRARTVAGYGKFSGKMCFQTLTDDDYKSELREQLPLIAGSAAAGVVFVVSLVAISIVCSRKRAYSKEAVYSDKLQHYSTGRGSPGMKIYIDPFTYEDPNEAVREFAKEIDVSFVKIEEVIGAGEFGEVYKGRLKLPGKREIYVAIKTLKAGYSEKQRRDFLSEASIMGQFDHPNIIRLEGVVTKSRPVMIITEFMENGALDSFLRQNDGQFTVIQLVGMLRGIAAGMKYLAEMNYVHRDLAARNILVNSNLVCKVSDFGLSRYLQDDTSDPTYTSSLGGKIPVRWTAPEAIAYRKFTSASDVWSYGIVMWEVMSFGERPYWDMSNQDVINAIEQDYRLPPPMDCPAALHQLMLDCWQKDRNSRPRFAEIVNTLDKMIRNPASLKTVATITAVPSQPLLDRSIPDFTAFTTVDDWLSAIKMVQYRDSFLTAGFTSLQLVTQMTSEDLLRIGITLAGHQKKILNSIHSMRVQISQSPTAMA

[3] = target: Tyrosine-protein kinase Yes (Homo sapiens) (UniProt P07947); experiment: Inhibition of recombinant full length human GST-tagged YES expressed in baculovirus expression system at 0.1 uM using tyrosine-2 peptide as substrate incubated for 60 mins by Z'-LYTE assay relative to control
Chain of Tyrosine-protein kinase Yes (Homo sapiens) (P07947 2-543 limits assumed): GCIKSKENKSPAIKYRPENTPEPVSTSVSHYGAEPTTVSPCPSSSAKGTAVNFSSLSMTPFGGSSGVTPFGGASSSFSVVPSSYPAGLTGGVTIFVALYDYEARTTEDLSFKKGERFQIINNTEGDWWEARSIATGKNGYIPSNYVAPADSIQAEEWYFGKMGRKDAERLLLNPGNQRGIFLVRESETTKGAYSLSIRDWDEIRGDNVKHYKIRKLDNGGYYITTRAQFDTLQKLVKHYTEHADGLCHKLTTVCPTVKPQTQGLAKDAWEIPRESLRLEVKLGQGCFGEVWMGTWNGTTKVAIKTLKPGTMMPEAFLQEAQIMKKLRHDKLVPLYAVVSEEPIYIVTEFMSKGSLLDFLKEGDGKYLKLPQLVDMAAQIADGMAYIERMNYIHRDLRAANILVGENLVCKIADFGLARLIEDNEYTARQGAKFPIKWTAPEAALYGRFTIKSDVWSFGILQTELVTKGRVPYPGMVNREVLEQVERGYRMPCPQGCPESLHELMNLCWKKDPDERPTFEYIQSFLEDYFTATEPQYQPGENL

[4] = target: Dual specificity protein kinase TTK (Homo sapiens) (UniProt P33981); experiment: Inhibition of tracer 236 binding to recombinant full length human GST-tagged TTK expressed in baculovirus expression system at 0.1 uM measured after 60 mins by Lanthascreen assay
[5] = target: PAS domain-containing serine/threonine-protein kinase (Homo sapiens) (UniProt Q96RG2); experiment: Inhibition of recombinant human GST-tagged PASK catalytic domain (879 to 1323 residues) expressed in baculovirus expression system at 0.1 uM using serine/threonine-7 peptide as substrate incubated for 60 mins by Z'-LYTE assay relative to control
[6] = organism: Homo sapiens; experiment: Inhibition of recombinant human His-tagged PKA catalytic domain (1 to 351 residues) expressed in Escherichia coli expression system at 0.1 uM using serine/threonine-1 peptide as substrate incubated for 60 mins by Z'-LYTE assay relative to control
[7] = target: Serine/threonine-protein kinase N1 (Homo sapiens) (UniProt Q16512); experiment: Inhibition of recombinant full length human GST-tagged PRK1 expressed in baculovirus expression system at 0.1 uM using serine/threonine-7 peptide as substrate incubated for 60 mins by Z'-LYTE assay relative to control
[8] = target: Testis-specific serine/threonine-protein kinase 1 (Homo sapiens) (UniProt Q9BXA7); experiment: Inhibition of recombinant full length human His-tagged TSSK1 expressed in baculovirus expression system at 0.1 uM using serine/threonine-4 peptide as substrate incubated for 60 mins by Z'-LYTE assay relative to control
Chain of Testis-specific serine/threonine-protein kinase 1 (Homo sapiens) (Q9BXA7 whole entry, the tested form may be a part): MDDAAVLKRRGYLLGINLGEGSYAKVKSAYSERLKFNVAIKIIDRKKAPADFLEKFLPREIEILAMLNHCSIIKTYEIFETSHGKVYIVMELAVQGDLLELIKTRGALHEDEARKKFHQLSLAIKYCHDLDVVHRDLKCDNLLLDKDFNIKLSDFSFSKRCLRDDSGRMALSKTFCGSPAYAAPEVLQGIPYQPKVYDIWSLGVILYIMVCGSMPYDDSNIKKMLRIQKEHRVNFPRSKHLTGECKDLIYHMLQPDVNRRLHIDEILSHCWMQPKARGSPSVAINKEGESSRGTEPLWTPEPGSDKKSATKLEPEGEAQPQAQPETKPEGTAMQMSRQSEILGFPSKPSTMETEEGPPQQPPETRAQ

[9] = target: Cyclin-dependent kinase 14/Cyclin-Y (Homo sapiens) (UniProt O94921+Q8ND76); experiment: Inhibition of tracer 236 binding to recombinant human GST-tagged CDK14/cyclin Y catalytic domain (CDK14: full length, Cyclin Y: 2 to end) expressed by baculovirus in Sf9 insect cells expression system at 0.1 uM measured after 60 mins by Lanthascreen assay relative to control
[10] = target: Rho-associated protein kinase 2 (Homo sapiens) (UniProt O75116); experiment: Inhibition of recombinant human GST-tagged ROCK2 catalytic domain (1 to 552 residues) expressed in baculovirus expression system at 0.1 uM using serine/threonine-13 peptide as substrate incubated for 60 mins by Z'-LYTE assay relative to control
Chain of Rho-associated protein kinase 2 (Homo sapiens) (O75116 whole entry, looked up, the tested form may be a part): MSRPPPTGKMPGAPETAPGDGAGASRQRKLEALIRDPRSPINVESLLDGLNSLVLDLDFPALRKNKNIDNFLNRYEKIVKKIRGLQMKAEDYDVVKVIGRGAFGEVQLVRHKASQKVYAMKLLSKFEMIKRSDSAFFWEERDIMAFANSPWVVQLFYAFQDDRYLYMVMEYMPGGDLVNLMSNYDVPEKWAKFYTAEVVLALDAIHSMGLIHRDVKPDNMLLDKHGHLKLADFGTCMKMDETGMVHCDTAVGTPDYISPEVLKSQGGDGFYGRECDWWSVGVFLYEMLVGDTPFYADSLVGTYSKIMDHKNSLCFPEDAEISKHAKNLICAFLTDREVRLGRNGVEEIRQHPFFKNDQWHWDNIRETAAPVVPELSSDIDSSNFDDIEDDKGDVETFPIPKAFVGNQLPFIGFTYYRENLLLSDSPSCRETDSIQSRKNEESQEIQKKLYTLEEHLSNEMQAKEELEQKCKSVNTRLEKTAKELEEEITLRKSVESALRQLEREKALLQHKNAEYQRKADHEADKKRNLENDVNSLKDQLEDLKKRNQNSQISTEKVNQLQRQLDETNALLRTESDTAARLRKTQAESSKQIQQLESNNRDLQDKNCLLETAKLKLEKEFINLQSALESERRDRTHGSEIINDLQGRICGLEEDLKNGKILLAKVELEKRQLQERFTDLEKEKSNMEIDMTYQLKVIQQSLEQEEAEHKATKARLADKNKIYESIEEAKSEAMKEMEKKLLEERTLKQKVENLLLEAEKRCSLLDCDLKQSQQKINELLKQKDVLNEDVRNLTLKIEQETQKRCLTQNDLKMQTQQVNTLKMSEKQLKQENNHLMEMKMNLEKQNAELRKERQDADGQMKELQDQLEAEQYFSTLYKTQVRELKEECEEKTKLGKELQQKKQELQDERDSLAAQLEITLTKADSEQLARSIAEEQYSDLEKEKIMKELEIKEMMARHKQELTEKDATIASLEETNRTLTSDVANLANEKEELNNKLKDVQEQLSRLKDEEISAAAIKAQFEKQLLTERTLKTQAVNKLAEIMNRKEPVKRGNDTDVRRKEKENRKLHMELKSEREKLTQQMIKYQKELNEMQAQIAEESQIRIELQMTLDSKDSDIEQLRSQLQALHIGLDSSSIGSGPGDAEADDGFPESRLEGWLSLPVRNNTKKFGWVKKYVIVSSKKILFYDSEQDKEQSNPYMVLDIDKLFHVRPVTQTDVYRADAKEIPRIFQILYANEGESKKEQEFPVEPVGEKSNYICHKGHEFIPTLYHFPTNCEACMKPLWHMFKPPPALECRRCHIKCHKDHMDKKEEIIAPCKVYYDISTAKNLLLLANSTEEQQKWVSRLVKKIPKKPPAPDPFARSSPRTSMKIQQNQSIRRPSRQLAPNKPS

[11] = target: Proto-oncogene tyrosine-protein kinase receptor Ret (Homo sapiens) (UniProt P07949); experiment: Inhibition of recombinant human GST-tagged RET (658 to 1114 residues) expressed in baculovirus expression system at 0.1 uM using tyrosine-2 peptide as substrate incubated for 60 mins by Z'-LYTE assay relative to control
[12] = target: Tyrosine-protein kinase Blk (Homo sapiens) (UniProt P51451); experiment: Inhibition of recombinant full length human His-tagged BLK expressed in baculovirus expression system at 0.1 uM using tyrosine-1 peptide as substrate incubated for 60 mins by Z'-LYTE assay relative to control
[13] = target: Muscle, skeletal receptor tyrosine-protein kinase (Homo sapiens) (UniProt O15146); experiment: Inhibition of recombinant human GST-tagged MUSK (519 to 869 residues) expressed in baculovirus expression system at 0.1 uM using tyrosine-4 peptide as substrate incubated for 60 mins by Z'-LYTE assay relative to control
[14] = target: Mitogen-activated protein kinase 8 (Homo sapiens) (UniProt P45983); experiment: Inhibition of recombinant full length human His-tagged JNK1alpha1 expressed in baculovirus expression system at 0.1 uM using serine/threonine-4 peptide as substrate incubated for 60 mins by Z'-LYTE assay relative to control
Chain of Mitogen-activated protein kinase 8 (Homo sapiens) (P45983 whole entry, the tested form may be a part, canonical isoform): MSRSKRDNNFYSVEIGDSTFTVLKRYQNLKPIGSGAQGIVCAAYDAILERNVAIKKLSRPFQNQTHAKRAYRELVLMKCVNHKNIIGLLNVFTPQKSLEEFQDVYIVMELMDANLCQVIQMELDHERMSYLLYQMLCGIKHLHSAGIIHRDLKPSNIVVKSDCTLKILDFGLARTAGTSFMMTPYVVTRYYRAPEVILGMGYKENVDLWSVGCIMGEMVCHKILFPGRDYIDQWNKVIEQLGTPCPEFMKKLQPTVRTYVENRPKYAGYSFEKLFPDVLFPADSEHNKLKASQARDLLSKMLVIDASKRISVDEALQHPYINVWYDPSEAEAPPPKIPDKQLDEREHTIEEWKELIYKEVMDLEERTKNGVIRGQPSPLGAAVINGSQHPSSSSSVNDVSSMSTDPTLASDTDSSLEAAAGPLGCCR

[15] = target: Phosphatidylinositol 4,5-bisphosphate 3-kinase catalytic subunit gamma isoform (Homo sapiens) (UniProt P48736); experiment: Inhibition of recombinant human GST-tagged PI3Kgamma catalytic domain (468 to 1203 residues) expressed in insect expression system at 0.1 uM using PI Lipid Kinase as substrate incubated for 60 mins by Adapta assay relative to control
[16] = target: G protein-coupled receptor kinase 5 (Homo sapiens) (UniProt P34947); experiment: Inhibition of recombinant full length human GST-tagged GRK5 expressed in baculovirus expression system at 0.1 uM using serine/threonine-16 peptide as substrate incubated for 60 mins by Z'-LYTE assay relative to control
Chain of G protein-coupled receptor kinase 5 (Homo sapiens) (P34947 whole entry, looked up): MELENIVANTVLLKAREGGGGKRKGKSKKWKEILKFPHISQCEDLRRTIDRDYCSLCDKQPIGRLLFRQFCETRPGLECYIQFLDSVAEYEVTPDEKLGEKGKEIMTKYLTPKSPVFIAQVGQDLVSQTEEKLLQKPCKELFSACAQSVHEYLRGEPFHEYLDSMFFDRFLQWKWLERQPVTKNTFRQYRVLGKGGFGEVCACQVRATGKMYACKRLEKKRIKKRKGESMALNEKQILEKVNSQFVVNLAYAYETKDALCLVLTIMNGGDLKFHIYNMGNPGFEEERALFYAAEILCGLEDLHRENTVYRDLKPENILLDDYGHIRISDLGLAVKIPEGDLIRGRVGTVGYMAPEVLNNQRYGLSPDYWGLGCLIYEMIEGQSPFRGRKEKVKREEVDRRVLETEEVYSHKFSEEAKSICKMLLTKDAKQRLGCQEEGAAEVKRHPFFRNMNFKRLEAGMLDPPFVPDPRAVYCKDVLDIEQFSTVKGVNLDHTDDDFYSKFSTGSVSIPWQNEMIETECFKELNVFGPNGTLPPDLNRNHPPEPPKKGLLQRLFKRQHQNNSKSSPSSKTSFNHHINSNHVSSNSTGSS

[17] = target: Mitogen-activated protein kinase 10 (Homo sapiens) (UniProt P53779); experiment: Inhibition of recombinant full length human GST-tagged JNK3 expressed in baculovirus expression system at 0.1 uM using serine/threonine-4 peptide as substrate incubated for 60 mins by Z'-LYTE assay relative to control
[18] = target: Dual specificity protein kinase CLK4 (Homo sapiens) (UniProt Q9HAZ1); experiment: Inhibition of tracer 236 binding to recombinant full length human GST-tagged CLK4 expressed in baculovirus expression system at 0.1 uM measured after 60 mins by Lanthascreen assay relative to control
Chain of Dual specificity protein kinase CLK4 (Homo sapiens) (Q9HAZ1 whole entry, looked up): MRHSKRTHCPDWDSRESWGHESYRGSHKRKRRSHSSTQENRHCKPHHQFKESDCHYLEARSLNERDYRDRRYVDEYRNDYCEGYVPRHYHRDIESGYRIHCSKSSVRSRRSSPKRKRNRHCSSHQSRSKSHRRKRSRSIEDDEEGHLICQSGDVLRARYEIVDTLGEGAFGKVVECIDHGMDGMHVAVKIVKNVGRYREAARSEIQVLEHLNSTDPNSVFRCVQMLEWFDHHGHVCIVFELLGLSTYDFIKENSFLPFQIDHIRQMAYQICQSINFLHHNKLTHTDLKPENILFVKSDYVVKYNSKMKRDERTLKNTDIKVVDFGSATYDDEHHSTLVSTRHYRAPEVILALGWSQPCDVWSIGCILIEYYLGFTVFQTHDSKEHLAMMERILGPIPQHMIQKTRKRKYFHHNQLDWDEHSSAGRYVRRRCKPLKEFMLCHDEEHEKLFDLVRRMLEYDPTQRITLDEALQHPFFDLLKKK

[19] = target: Inhibitor of nuclear factor kappa-B kinase subunit epsilon (Homo sapiens) (UniProt Q14164); experiment: Inhibition of recombinant full length human GST-tagged IKKepsilon expressed in baculovirus expression system at 0.1 uM using serine/threonine-11 peptide as substrate incubated for 60 mins by Z'-LYTE assay relative to control
[20] = target: CDK8/Cyclin C (Homo sapiens) (UniProt P49336+P24863); experiment: Inhibition of tracer 236 binding to recombinant full length human His-tagged CDK8/cyclin C expressed in baculovirus expression system at 0.1 uM measured after 60 mins by Lanthascreen assay
[21] = target: Homeodomain-interacting protein kinase 1 (Homo sapiens) (UniProt Q86Z02); experiment: Inhibition of recombinant human GST-tagged HIPK1 catalytic domain (158 to 555 residues) expressed in baculovirus expression system at 0.1 uM using serine/threonine-9 peptide as substrate incubated for 60 mins by Z'-LYTE assay relative to control
[22] = target: Ribosomal protein S6 kinase alpha-5 (Homo sapiens) (UniProt O75582); experiment: Inhibition of recombinant full length human GST-tagged MSK1 expressed in baculovirus expression system at 0.1 uM using serine/threonine-1 peptide as substrate incubated for 60 mins by Z'-LYTE assay relative to control
[23] = target: Focal adhesion kinase 1 (Homo sapiens) (UniProt Q05397); experiment: Inhibition of recombinant full length human GST-tagged FAK expressed in baculovirus expression system at 0.1 uM using tyrosine-7 peptide as substrate incubated for 60 mins by Z'-LYTE assay relative to control

Compound	inhibition [1] [%]	inhibition [2] [%]	inhibition [3] [%]	inhibition [4] [%]	inhibition [5] [%]	inhibition [6] [%]	inhibition [7] [%]	inhibition [8] [%]	inhibition [9] [%]	inhibition [10] [%]	inhibition [11] [%]	inhibition [12] [%]	inhibition [13] [%]	inhibition [14] [%]	inhibition [15] [%]	inhibition [16] [%]	inhibition [17] [%]	inhibition [18] [%]	inhibition [19] [%]	inhibition [20] [%]	other results
CCN1CC2(C1)CN(c1ccc(Nc3ncc(F)c(-c4cnn5c4[C@H](C)CCCC5)n3)nc1)C2	7	8	8.5	41	14.5	4	8.5	67.5	41.5	7	13.5	3.5	10.5	78	2	3	66.5	95	3.5	75	inhibition [21]: 4.5%; inhibition [22]: 24.5%; inhibition [23]: 19.5%
CCN1CCN(Cc2ccc(Nc3ncc(F)c(-c4cc(F)c5nc(C)n(C(C)C)c5c4)n3)nc2)CC1 [ABEMACICLIB]	8.5	0.5	9	54.5	73	5	7	21.5	56	18.5	5.5	12.5	24.8	46.2	-6.3	2	59.1	97.7	8	24.2	inhibition [21]: 78.5%; inhibition [22]: 32.5%; inhibition [23]: 15.5%
